# Reference: paper PMC4076210, “Discovery of Novel AKT Inhibitors with Enhanced Anti-Tumor Effects in Combination with the MEK Inhibitor” (PLoS ONE, 2014)
# Like-named read-outs stand apart in the source and are kept apart here.
# Assays:
# Test in all cases: Kinase panel
# Format in all cases: biochemical
# CaMKIIβ(h) = biological target: T1, CaMKIIβ(h) (Homo sapiens, UniProt Q13554)
# T1 construct: purchased Millipore KinaseProfiler
# CK2α2(h) = biological target: T2, CK2α2(h) (Homo sapiens, UniProt P19784)
# T2 construct: purchased Millipore KinaseProfiler
# T2 sequence (P19784 whole entry): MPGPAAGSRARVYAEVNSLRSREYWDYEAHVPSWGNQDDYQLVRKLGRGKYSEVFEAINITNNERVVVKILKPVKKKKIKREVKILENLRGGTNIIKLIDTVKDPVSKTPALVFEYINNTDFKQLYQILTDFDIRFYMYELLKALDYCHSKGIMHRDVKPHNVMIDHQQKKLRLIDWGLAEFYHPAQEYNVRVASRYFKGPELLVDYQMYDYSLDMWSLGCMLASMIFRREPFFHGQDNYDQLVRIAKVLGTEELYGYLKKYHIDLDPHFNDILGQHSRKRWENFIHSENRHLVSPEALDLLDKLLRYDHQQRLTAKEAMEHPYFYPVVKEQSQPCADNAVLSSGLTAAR
# EphA4(h) = biological target: T3, EphA4(h) (Homo sapiens, UniProt P54764)
# T3 construct: purchased Millipore KinaseProfiler
# T3 sequence (P54764 20-986): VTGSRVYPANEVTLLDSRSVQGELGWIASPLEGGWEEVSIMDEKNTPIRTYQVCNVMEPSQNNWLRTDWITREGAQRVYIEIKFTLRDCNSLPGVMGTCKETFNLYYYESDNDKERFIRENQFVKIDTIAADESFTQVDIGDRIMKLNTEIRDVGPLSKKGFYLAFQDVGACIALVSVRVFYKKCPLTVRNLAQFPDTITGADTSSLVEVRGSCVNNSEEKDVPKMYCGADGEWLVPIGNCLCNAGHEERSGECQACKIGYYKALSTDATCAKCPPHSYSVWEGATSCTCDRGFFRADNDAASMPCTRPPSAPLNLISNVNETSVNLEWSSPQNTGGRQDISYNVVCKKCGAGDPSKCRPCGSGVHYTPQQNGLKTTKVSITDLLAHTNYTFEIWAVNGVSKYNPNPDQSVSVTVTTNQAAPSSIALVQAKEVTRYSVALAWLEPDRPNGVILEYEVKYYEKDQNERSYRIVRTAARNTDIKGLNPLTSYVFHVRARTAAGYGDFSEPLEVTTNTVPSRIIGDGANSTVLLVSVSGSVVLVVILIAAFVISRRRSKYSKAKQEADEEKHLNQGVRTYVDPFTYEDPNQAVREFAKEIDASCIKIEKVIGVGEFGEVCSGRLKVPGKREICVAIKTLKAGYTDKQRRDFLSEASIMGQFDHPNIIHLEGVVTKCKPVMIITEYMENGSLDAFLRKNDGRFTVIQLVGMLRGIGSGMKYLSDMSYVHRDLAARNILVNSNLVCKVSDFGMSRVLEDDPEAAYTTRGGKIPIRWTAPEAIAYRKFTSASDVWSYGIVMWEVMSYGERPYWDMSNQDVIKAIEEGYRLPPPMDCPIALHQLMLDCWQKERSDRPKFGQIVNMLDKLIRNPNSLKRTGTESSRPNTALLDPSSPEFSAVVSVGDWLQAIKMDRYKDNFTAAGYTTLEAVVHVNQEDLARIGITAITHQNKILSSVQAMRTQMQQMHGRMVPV
# EphB2(h) = biological target: T4, EphB2(h) (Homo sapiens, UniProt P29323)
# T4 construct: purchased Millipore KinaseProfiler
# T4 sequence (P29323 19-1055): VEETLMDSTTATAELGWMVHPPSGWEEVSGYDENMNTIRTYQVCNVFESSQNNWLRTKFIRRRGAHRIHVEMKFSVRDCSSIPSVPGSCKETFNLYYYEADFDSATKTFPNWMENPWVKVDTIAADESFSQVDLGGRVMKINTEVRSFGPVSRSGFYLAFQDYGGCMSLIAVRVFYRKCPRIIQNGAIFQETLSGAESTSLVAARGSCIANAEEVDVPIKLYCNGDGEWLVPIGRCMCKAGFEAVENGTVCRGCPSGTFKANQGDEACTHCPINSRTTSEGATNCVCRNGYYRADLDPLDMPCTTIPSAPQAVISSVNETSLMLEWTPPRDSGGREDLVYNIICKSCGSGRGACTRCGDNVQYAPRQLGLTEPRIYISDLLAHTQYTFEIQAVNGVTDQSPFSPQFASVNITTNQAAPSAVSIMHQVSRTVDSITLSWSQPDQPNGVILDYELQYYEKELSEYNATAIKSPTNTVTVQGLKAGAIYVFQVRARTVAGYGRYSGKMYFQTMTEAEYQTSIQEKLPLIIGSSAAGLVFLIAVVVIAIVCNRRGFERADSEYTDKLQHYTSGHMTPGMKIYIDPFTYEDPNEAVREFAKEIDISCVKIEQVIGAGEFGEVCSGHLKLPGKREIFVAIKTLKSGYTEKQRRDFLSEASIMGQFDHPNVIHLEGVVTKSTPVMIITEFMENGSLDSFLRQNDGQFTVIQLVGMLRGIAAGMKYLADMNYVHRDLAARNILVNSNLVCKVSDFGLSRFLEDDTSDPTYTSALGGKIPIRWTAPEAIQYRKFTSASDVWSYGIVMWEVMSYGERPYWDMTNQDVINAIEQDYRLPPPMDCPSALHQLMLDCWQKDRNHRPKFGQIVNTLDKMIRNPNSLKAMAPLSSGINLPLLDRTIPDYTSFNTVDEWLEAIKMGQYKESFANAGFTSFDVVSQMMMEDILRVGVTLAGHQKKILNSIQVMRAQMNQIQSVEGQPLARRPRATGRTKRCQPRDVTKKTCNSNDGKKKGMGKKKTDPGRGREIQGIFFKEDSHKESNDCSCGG
# PASK(h) = biological target: T5, PASK(h) (Homo sapiens, UniProt Q96RG2)
# T5 construct: purchased Millipore KinaseProfiler
# T5 sequence (Q96RG2 whole entry): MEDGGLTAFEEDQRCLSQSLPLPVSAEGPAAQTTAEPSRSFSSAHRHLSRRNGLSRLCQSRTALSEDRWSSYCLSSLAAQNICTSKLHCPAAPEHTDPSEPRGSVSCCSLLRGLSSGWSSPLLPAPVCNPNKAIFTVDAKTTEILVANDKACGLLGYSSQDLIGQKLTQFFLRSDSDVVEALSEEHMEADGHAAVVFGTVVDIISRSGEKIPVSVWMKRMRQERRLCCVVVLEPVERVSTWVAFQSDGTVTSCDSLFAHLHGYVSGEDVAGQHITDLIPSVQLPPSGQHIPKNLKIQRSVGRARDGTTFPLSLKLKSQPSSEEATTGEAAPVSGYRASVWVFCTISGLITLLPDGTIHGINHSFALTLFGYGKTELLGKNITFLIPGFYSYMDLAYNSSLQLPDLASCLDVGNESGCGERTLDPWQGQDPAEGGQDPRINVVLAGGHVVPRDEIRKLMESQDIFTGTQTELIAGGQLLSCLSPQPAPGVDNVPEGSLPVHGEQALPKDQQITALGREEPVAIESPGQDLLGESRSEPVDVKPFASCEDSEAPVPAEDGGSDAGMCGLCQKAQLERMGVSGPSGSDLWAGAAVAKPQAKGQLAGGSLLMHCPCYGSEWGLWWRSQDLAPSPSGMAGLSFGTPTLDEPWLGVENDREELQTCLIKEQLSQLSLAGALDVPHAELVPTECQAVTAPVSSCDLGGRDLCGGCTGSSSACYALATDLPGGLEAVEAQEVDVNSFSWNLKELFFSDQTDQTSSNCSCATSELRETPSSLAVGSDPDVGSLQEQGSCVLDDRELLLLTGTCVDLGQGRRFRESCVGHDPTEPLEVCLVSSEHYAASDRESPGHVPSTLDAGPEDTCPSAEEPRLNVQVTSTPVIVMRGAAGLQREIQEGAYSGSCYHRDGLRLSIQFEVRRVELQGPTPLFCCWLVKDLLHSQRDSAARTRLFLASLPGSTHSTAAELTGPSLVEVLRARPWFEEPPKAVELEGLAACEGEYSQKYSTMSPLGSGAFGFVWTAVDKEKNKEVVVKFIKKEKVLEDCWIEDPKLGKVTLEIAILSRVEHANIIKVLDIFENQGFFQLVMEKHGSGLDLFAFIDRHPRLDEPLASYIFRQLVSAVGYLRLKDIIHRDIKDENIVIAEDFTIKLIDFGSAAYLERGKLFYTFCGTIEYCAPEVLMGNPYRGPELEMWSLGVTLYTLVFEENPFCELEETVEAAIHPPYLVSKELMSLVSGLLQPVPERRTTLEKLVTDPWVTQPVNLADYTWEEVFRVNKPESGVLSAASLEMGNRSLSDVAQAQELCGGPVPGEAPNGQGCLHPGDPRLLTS
# Ret(h) = biological target: T6, Ret(h) (Homo sapiens, UniProt P07949)
# T6 construct: purchased Millipore KinaseProfiler
# RIPK2(h) = biological target: T7, RIPK2(h) (Homo sapiens, UniProt O43353)
# T7 construct: purchased Millipore KinaseProfiler
# T7 sequence (O43353 whole entry): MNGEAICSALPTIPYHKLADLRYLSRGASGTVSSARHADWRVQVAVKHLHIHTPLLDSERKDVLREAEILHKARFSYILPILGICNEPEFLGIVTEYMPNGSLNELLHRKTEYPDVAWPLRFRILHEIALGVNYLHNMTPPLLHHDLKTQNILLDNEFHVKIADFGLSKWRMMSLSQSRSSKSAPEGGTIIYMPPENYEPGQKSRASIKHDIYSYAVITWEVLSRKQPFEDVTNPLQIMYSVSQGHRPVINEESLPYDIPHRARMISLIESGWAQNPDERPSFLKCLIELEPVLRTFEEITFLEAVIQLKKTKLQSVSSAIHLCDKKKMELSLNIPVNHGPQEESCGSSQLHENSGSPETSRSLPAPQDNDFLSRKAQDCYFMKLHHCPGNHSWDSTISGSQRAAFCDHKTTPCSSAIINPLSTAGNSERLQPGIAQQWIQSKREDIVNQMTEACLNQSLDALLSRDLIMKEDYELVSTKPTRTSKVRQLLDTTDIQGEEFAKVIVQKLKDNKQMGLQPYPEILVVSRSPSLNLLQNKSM
# ROCK-II(r) = biological target: T8, ROCK-II(r) (Rattus norvegicus, UniProt Q62868)
# T8 construct: purchased Millipore KinaseProfiler
# T8 sequence (Q62868 2-543 limits assumed): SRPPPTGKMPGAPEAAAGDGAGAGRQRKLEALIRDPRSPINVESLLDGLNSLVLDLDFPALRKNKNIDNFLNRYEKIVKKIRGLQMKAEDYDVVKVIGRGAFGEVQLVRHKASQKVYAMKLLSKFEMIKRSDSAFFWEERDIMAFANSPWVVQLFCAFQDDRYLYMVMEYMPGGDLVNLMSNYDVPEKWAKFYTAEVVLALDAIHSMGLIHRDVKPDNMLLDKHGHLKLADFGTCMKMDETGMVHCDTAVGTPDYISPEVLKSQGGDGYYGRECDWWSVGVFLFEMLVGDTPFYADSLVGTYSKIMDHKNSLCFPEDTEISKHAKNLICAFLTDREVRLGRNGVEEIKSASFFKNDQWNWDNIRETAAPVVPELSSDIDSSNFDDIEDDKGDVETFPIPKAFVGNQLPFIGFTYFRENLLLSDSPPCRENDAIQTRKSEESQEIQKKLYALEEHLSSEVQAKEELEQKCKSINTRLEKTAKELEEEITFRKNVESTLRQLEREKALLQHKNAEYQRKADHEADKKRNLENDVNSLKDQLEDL
# Ros(h) = biological target: T9, Ros(h) (Homo sapiens, UniProt P08922)
# T9 construct: purchased Millipore KinaseProfiler
# STK33(h) = biological target: T10, STK33(h) (Homo sapiens, UniProt Q9BYT3)
# T10 construct: purchased Millipore KinaseProfiler
# T10 sequence (Q9BYT3 whole entry): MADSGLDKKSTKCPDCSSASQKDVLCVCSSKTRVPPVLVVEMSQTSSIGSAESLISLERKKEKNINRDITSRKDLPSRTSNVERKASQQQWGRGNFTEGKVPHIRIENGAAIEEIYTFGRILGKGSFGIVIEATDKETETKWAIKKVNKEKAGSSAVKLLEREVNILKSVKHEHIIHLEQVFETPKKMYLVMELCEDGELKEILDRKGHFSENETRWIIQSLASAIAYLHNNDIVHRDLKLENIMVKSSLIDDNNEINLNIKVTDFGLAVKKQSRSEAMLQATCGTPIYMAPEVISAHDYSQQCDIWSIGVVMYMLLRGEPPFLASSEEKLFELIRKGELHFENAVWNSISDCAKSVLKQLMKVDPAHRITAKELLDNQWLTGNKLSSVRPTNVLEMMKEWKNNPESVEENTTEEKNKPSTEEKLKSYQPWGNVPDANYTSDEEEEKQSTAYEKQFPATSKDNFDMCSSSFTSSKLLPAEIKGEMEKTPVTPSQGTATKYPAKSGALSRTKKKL
# ULK2(h) = biological target: T11, ULK2(h) (Homo sapiens, UniProt Q8IYT8)
# T11 construct: purchased Millipore KinaseProfiler
# T11 sequence (Q8IYT8 1-1036): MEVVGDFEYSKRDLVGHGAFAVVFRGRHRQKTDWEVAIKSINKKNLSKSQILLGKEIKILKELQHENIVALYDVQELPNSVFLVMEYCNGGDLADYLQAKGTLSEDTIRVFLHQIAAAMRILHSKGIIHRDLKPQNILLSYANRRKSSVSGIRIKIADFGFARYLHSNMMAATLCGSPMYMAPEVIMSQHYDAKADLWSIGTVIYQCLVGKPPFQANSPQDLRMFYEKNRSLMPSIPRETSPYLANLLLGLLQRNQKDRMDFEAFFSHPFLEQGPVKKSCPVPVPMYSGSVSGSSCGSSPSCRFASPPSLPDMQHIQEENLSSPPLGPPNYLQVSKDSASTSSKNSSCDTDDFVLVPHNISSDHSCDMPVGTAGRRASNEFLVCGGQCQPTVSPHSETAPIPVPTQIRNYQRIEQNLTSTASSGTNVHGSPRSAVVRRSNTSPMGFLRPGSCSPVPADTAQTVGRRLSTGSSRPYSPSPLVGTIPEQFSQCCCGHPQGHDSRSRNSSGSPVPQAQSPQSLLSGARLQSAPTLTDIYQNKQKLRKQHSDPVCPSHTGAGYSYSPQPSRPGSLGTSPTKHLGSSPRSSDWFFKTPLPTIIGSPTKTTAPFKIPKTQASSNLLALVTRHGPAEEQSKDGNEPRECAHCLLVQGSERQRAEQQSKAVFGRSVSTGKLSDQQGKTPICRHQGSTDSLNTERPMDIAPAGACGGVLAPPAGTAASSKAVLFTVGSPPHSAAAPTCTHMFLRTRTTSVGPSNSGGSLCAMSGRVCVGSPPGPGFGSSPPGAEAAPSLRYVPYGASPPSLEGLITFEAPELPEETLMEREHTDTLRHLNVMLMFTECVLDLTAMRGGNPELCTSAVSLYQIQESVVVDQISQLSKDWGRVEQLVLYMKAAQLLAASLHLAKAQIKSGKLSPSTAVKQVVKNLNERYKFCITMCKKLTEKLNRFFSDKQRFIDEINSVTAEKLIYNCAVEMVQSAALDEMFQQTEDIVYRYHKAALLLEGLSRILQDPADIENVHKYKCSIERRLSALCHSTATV
# T1 sequence (Q13554 whole entry): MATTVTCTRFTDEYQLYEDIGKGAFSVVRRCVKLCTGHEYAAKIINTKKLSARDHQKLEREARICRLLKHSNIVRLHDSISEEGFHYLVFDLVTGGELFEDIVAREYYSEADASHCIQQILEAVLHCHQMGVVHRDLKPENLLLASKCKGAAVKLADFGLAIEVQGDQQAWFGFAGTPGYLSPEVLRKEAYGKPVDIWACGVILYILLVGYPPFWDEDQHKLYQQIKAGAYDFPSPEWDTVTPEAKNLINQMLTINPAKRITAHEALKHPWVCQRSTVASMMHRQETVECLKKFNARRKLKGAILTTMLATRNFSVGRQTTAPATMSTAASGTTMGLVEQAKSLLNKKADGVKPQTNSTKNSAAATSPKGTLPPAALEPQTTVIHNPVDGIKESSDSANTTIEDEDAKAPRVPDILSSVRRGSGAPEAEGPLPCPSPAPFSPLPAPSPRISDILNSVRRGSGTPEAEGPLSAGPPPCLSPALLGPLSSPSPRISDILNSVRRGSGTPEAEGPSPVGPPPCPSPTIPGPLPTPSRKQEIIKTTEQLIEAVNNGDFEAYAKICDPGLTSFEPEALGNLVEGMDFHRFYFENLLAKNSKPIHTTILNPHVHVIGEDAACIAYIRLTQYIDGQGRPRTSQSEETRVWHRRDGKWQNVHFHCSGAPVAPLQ
smiles,measurement,setting,value
Cn1ncc(Cl)c1-c1cc(C(=O)N[C@H](CN)Cc2cccc(F)c2)sc1Cl [GSK2110183],inhibition at 0.5 µM,CaMKIIβ(h),5%
same,inhibition at 10 µM,CaMKIIβ(h),61%
same,inhibition at 0.5 µM,CK2α2(h),2%
same,inhibition at 10 µM,CK2α2(h),4%
same,inhibition at 0.5 µM,EphA4(h),-1%
same,inhibition at 10 µM,EphA4(h),-12%
same,inhibition at 0.5 µM,EphB2(h),-8%
same,inhibition at 10 µM,EphB2(h),4%
same,inhibition at 0.5 µM,PASK(h),4%
same,inhibition at 10 µM,PASK(h),45%
same,inhibition at 0.5 µM,Ret(h),4%
same,inhibition at 10 µM,Ret(h),14%
same,inhibition at 0.5 µM,RIPK2(h),-8%
same,inhibition at 10 µM,RIPK2(h),-3%
same,inhibition at 0.5 µM,ROCK-II(r),73%
same,inhibition at 10 µM,ROCK-II(r),97%
same,inhibition at 0.5 µM,Ros(h),-10%
same,inhibition at 10 µM,Ros(h),-10%
same,inhibition at 0.5 µM,STK33(h),56%
same,inhibition at 10 µM,STK33(h),94%
same,inhibition at 0.5 µM,ULK2(h),0%
same,inhibition at 10 µM,ULK2(h),15%
Cn1ncc(Cl)c1-c1cc(C(=O)N[C@H](CN)Cc2ccc(F)c(F)c2)oc1Cl [GSK2141795],inhibition at 0.5 µM,"CaMKIIβ(h); 0.5 µM, read-out: % Inhibition",15%
same,inhibition at 10 µM,"CaMKIIβ(h); 10 µM, read-out: % Inhibition",75%
same,inhibition at 0.5 µM,"CK2α2(h); 0.5 µM, read-out: % Inhibition",1%
same,inhibition at 10 µM,"CK2α2(h); 10 µM, read-out: % Inhibition",-5%
same,inhibition at 0.5 µM,"EphA4(h); 0.5 µM, read-out: % Inhibition",-10%
same,inhibition at 10 µM,"EphA4(h); 10 µM, read-out: % Inhibition",-8%
same,inhibition at 0.5 µM,"EphB2(h); 0.5 µM, read-out: % Inhibition",-8%
same,inhibition at 10 µM,"EphB2(h); 10 µM, read-out: % Inhibition",0%
same,inhibition at 0.5 µM,"PASK(h); 0.5 µM, read-out: % Inhibition",11%
same,inhibition at 10 µM,"PASK(h); 10 µM, read-out: % Inhibition",49%
same,inhibition at 0.5 µM,"Ret(h); 0.5 µM, read-out: % Inhibition",-19%
same,inhibition at 10 µM,"Ret(h); 10 µM, read-out: % Inhibition",31%
same,inhibition at 0.5 µM,"RIPK2(h); 0.5 µM, read-out: % Inhibition",3%
same,inhibition at 10 µM,"RIPK2(h); 10 µM, read-out: % Inhibition",15%
same,inhibition at 0.5 µM,"ROCK-II(r); 0.5 µM, read-out: % Inhibition",72%
same,inhibition at 10 µM,"ROCK-II(r); 10 µM, read-out: % Inhibition",98%
same,inhibition at 0.5 µM,"Ros(h); 0.5 µM, read-out: % Inhibition",0%
same,inhibition at 10 µM,"Ros(h); 10 µM, read-out: % Inhibition",5%
same,inhibition at 0.5 µM,"STK33(h); 0.5 µM, read-out: % Inhibition",82%
same,inhibition at 10 µM,"STK33(h); 10 µM, read-out: % Inhibition",77%
same,inhibition at 0.5 µM,"ULK2(h); 0.5 µM, read-out: % Inhibition",6%
same,inhibition at 10 µM,"ULK2(h); 10 µM, read-out: % Inhibition",26%
